Results on 1 compound are retold here after patent US10802012B2, “Optical cytometry to determine cell mass changes in response to a biologically active agent” (The Regents of the University of California, priority 2009, dated 2020).

In test [1] the test system is NIH3T3 cells. Kind of test: Cell morphology in intensity images during cytochalasin treatment. The format is cell-based, mouse. To be noted: 1 μM, up to 45 minutes. On the procedure:
(§1) Cells were prepared for measurement as described above. A continuous infusion of fresh media into the sample chamber, warmed to 37 C and pre-saturated with 5%CO2, was maintained at all times. The rate of infusion was 5 μL/min, equivalent to exchanging the entire volume of the test chamber in 20 minutes. Cells were equilibrated under flow for 45 minutes before measurement. Flow was halted during each measurement cycle, which lasted approximately 200 seconds. The first, a media-only measurement was conducted at 1 hour, immediately followed by introduction of cytochalasin B into the infusing media. Initially, the cytochalasin B was dissolved in DMSO and diluted in DMEM to produce a stock concentration 1000× the working concentration (1 μM or 10 μM). At the appropriate time, the stock solution was introduced into the infusion media reservoir to produce the desired final concentration.

Test [2] deals with fibroblasts. The conditions noted are these: low doses (0.1-1 μM); cited from earlier work.
The subject of test [3] is fibroblasts. The conditions noted are these: low doses (0.1-1 μM); cited from earlier work. This is another data set of the same source.
Test [4] deals with NIH3T3 cells. Kind of test: Mechanical imaging interferometry (MII) viscoelastic measurement of cells before and after cytochalasin B. The format is cell-based, mouse. On the procedure: The population measurements of the NIH 3T3 fibroblasts and the HEK 293T […] were conducted over several consecutive days. Both cell types were cultured at the same time on a series of poly-L-lysine coated 0.20×10 mm round glass coverslips, in 1×DMEM with 10% fetal bovine serum in a laboratory incubator under standard cell culture conditions. Preceding measurement, a single round coverslip containing cells would be removed from the culture dish and quickly placed in the microscope test chamber. Microreflectors would be added to media from the original culture dish, which would then be pipetted slowly onto the cells and the sample chamber sealed. Cells were allowed to equilibrate in the test chamber for 30 minutes before measurement. The average radius of the measured microreflectors was 3.79 μm, and the average applied force was 190 pN. The average cell height was 8.1 μm and the average maximum indentation depth per cell was 660 nm.
The three constants for a viscoelastic solid were determined for each measurement by fitting the time-dependent force-displacement curves of the microreflectors to the following equation (see, e.g. Cheng et al., (2005) Mechanics of Materials 37, 213-226):
[formula] Our measurements assumed Poisson's ratio for the cell, v=0.5. Curves were fitted using the Levenberg-Marquardt non-linear least squares procedure (Origin Labs). The z-statistic was used to compare the log-transformed sample means and determine p values. The Bartlett test was used to confirm homogeneity of the compared sample variances.
To remain within the semi-infinite layer assumptions of this model, we present fits only for observations where the minimum cell thickness at the location of the microreflector was 3 μm or greater. A majority of the measurements fit the model elastic constants E1 and E2 well, having a relative standard error of fit <25%. There was larger uncertainty in the viscosity factor, η, with only 30% of the fits having a relative standard error <25%.
as §1

The subject of test [5] is fibroblasts. To be noted: low doses (0.1-1 μM); cited from earlier work. This is another data set of the same source.
Setting [6] is: NIH3T3 cells, 1 μM, matched individual cell basis.
[7] abbreviates: NIH3T3 cells, FIG. 6B, normal force applied for 100 seconds, before vs after treatment.

Turning to `C=C1[C@@H](C)[C@H]2[C@H](Cc3ccccc3)NC(=O)[C@]23OC(=O)/C=C/[C@H](O)CCC[C@@H](C)C/C=C/[C@H]3[C@@H]1O` [cytochalasin B], in the test on NIH3T3 cells [1], the “change in cell morphology” value is reported as “only a slight change in cell morphology”. For the same compound, the “changes in the morphology of fibroblasts” value with fibroblasts [2] was “does not produce large changes in the morphology”. The cell migration entry with fibroblasts [3] is reported as “inhibit cell migration”. Also, the “mean of the log-transformed distribution of E2 (delayed elastic constant) after treatment” value in the test with NIH3T3 cells [4] (NIH3T3 cells (n=30), 1 μM, before treatment 2.30, p=0.04) is given as 2.02. Also, the “mean of the log-transformed distribution of E1 (instantaneous elastic constant) after treatment” value in the test on NIH3T3 cells [4] (NIH3T3 cells (n=30), 1 μM, before treatment 3.19, p=0.10) turned out to be 2.92. Also, the “mean of the log-transformed viscous constant η after treatment” value with NIH3T3 cells [4] (NIH3T3 cells (n=30), 1 μM, before treatment 3.39, p=0.47) is recorded as 3.36. Besides, in the test on NIH3T3 cells [4] (setting [6]), the “matched individual cells with E1 lower after treatment” value is recorded as 10/13, the “matched individual cells with E2 lower after treatment” value was 7/10 and the “matched individual cells with viscosity η lower after treatment” value is 6/11. In the test on NIH3T3 cells [4] (setting [7]), the “change in viscoelastic behavior, force-displacement curve of probe 1” value is given as “appears to be unchanged”; the “change in viscoelastic behavior, force-displacement curve of probe 4” value is recorded as “change in elastic rebound behavior”; the “change in viscoelastic behavior, force-displacement curves of probes 2 and 3” value is “clear decrease in stiffness”. Also, the “elasticity of treated cells” value with NIH3T3 cells [4] (NIH3T3 cells, low dose (1 μM)) was “treated cells were less elastic”. The “change in Young's modulus by AFM indentation” value in the test with fibroblasts [5] was “minimal, if any, measurable change in Young's modulus”.
